Experimental data reported in PubChem BioAssay (NCI).
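Protocol summary: plate cells (96-well), add compound at 5 concentrations, incubate 48 h, interpolate endpoints linearly. GI50: concentration for 50% inhibition of growth. TGI marks complete inhibition of growth.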

How the values were obtained:
Assay in all cases: NCI tumour cell line growth inhibition, 48 h
DLD-1 colon = tested on: DLD-1 colon
LXFL 529 NSCLC = tested on: LXFL 529 NSCLC
786-0 renal = tested on: 786-0 renal
HOP-18 NSCLC = tested on: HOP-18 NSCLC
MDA-N = tested on: MDA-N
DMS 114 small cell lung = tested on: DMS 114 small cell lung
M19-MEL melanoma = tested on: M19-MEL melanoma
SN12K1 renal = tested on: SN12K1 renal
P388 leukemia = tested on: P388 leukemia
P388/ADR leukemia = tested on: P388/ADR leukemia
RXF-631 renal = tested on: RXF-631 renal

For `CCCC(=O)[O-].N.N.N.N.N.[Co+3].[O-][Cl+3]([O-])([O-])[O-]`, the GI50 (DLD-1 colon) was greater than 100 µM, the TGI (DLD-1 colon) was greater than 100 µM and the GI50 (LXFL 529 NSCLC) was greater than 100 µM. For the same compound, the TGI (LXFL 529 NSCLC) was greater than 100 µM and the TGI (786-0 renal) was greater than 100 µM.
`COC1OC2=CCC3C(=O)NC(=O)C3C2[C@H](OCc2ccccc2)C1OCc1ccccc1` (some centres not stated) was tested, and the TGI (HOP-18 NSCLC) was 6.37 µM, the TGI (DLD-1 colon) was 3.71 µM and the TGI (LXFL 529 NSCLC) was 3.09 µM.
In the case of `CCOC(=O)N1CCC(=C2c3ccc(Cl)cc3CCc3cccnc32)CC1`, the TGI (786-0 renal) was 33.4 µM and the TGI (MDA-N) was 16.8 µM.
With `CN(C)/N=N/c1nc[nH]c1C(N)=O` the TGI (HOP-18 NSCLC) was 39.2 µM, the TGI (DMS 114 small cell lung) was 96.8 µM and the TGI (M19-MEL melanoma) was greater than 94.7 µM. For the same compound, the TGI (SN12K1 renal) was 92.6 µM, the TGI (786-0 renal) was greater than 1000 µM and the TGI (P388 leukemia) was greater than 98.3 µM. The TGI (MDA-N) was greater than 1000 µM and the TGI (P388/ADR leukemia) was greater than 96.5 µM.
In the case of `O=C(O)C(=O)/C=C(\O)c1ccc(Br)cc1`, the TGI (786-0 renal) was greater than 100 µM and the TGI (MDA-N) was greater than 100 µM.
For `O=c1ccc2ccc(O)cc2o1`, the TGI (786-0 renal) was greater than 100 µM and the TGI (MDA-N) was greater than 100 µM.
`NCCCNCCCCN1CC1` was tested, and the TGI (MDA-N) was greater than 100 µM.
`C=C1C(=O)OC2CC3(C)OC3CC/C(C)=C/C(OC(C)=O)C12` (configuration not stated) was tested, and the TGI (HOP-18 NSCLC) was 23.5 µM, the TGI (DLD-1 colon) was 7.81 µM and the TGI (DMS 114 small cell lung) was 23 µM. For the same compound, the TGI (M19-MEL melanoma) was 22.3 µM, the TGI (LXFL 529 NSCLC) was 5.92 µM and the TGI (786-0 renal) was 14.2 µM. It also gave a TGI (MDA-N) of 18.7 µM.
`COc1ccc(Sc2ccccc2N)cc1` was tested, and the TGI (HOP-18 NSCLC) was greater than 100 µM, the TGI (DLD-1 colon) was greater than 100 µM and the TGI (DMS 114 small cell lung) was greater than 100 µM. The TGI (M19-MEL melanoma) was greater than 100 µM and the TGI (LXFL 529 NSCLC) was greater than 100 µM.
For `Cc1ccc(CCC(=O)C(=O)O)s1`, the TGI (HOP-18 NSCLC) was greater than 100 µM, the TGI (DMS 114 small cell lung) was greater than 100 µM and the TGI (M19-MEL melanoma) was greater than 100 µM. It also gave a TGI (LXFL 529 NSCLC) greater than 100 µM and a TGI (RXF-631 renal) greater than 100 µM.
`COC(=O)C(NC(=O)c1ccccc1)C(c1ccc(Cl)cc1)P(=O)(OC)OC` (configuration not stated) gave a TGI (DLD-1 colon) greater than 100 µM, a TGI (M19-MEL melanoma) greater than 100 µM and a TGI (LXFL 529 NSCLC) greater than 100 µM.
For `CCOc1ccc2c(c1)c(=O)c1c(NCCN(CC)CC)ccc3nnn2c31`, the TGI (786-0 renal) was greater than 49 µM and the TGI (MDA-N) was 35.7 µM.
With `CCCCNC(=O)/N=C/c1c(O)c2ccccc2oc1=O` the TGI (DMS 114 small cell lung) was greater than 100 µM, the TGI (M19-MEL melanoma) was greater than 100 µM and the TGI (LXFL 529 NSCLC) was greater than 100 µM.
Compound `COc1ccc(N2NC(c3ccccc3)(c3ccccc3)C(C)C2=O)cc1` (configuration not stated) has a TGI (MDA-N) greater than 100 µM.
`CC(C)(C)CC(C)(C)c1ccc(O)c(C[N+](C)(C)[O-])c1` was tested, and the TGI (786-0 renal) was greater than 100 µM and the TGI (MDA-N) was greater than 100 µM.
With `Cc1ccc(NC(=O)CSC(N)=O)cc1C` the TGI (786-0 renal) was greater than 100 µM.
In the case of `COc1ccc(C[C@H](N)C(=O)N2C[C@@H](CO)C[C@@H](n3ccc(=O)[nH]c3=O)C2)cc1`, the TGI (HOP-18 NSCLC) was greater than 100 µM, the TGI (DLD-1 colon) was greater than 100 µM and the TGI (DMS 114 small cell lung) was greater than 100 µM. For the same compound, the TGI (M19-MEL melanoma) was greater than 100 µM and the TGI (LXFL 529 NSCLC) was greater than 100 µM.
